This passage reports Ki results from patent US8067395B2, “Inhibitors of tyrosine kinases and uses thereof” (Pharmacyclics, Inc., priority 2006, dated 2011).

Chain of Btk (Q06187 whole entry): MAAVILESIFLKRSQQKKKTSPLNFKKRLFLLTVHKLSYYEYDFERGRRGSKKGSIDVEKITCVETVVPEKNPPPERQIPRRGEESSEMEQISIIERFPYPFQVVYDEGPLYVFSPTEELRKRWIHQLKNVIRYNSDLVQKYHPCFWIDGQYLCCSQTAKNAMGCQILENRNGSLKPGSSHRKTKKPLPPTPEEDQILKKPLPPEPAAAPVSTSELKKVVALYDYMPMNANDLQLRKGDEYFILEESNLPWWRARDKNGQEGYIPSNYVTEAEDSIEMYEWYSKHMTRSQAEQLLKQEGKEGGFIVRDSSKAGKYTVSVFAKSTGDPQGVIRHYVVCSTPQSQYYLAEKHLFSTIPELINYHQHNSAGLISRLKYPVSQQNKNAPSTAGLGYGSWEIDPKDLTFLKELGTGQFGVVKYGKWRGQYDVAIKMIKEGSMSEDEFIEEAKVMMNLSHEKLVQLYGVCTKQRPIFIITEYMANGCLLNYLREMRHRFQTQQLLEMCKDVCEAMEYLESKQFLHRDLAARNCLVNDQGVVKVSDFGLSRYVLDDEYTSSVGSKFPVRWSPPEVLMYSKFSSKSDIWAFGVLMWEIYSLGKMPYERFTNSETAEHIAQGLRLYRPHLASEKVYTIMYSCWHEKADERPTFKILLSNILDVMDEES

For the assay, the target named is Btk (Homo sapiens, UniProt Q06187). The assay is described as follows: Btk TR-FRET kinase inhibition assay. In kind it is biochemical. Particulars: pH 7.4, ATP at the Km for the kinase, 1 μM peptide substrate, [Btk]total=0.5 nM, read-out: Btk-TRFRET (Ki). The method, then:
Suitable in vitro assays for measuring kinase activity and the inhibition thereof by compounds are known (e.g., see Kuzmic et al. Anal. Biochem. 2000, 286, 45-50).
The following protocol represents an assay for determination of inhibition of kinases under physiological conditions (pH 7.4). Kinase activity was determined using a time-resolved fluorescence resonance energy transfer (TR-FRET) methodology. Measurements were performed in a reaction volume of 50 μL using 96-well assay plates. Kinase enzyme, inhibitor, ATP (at the Km for the kinase), and 1 μM peptide substrate (Biotin-AVLESEEELYSSARQ-NH2) were incubated in a reaction buffer composed of 20 mM Tris, 50 mM NaCl, MgCl2 (5-25 mM depending on the kinase), 1 mM DTT, 0.1 mM EDTA, 0.01% bovine serum albumin, 0.005% Tween-20, and 10% DMSO at pH 7.4 for one hour. The reaction was quenched by the addition of 1.2 equivalents of EDTA (relative to Mg^2+) in 25 μL of 1× Lance buffer (Perkin-Elmer). Streptavidin-APC (Perkin-Elmer) and Eu-labeled p-Tyr100 antibody (Perkin-Elmer) in 1× Lance buffer were added in a 25 μL volume to give final concentrations of 100 nM and 2.5 nM, respectively, and the mixture was allowed to incubate for one hour. The TR-FRET signal was measured on a multimode plate reader with an excitation wavelength of 330 nm and detection wavelengths of 615 nm and 665 nm. Activity was determined by the ratio of the fluorescence at 665 nm to that at 615 nm. For each compound, enzyme activity was measured at various concentrations of compound. Negative control reactions were performed in the absence of inhibitor in replicates of six, and two no-enzyme controls were used to determine baseline fluorescence levels. Inhibition constants were obtained using the program BatchKi (Kuzmic et al. Anal. Biochem. 2000, 286, 45-50). IC50s were obtained according to this equation: IC50={Ki(app)/(1+[ATP]/Km^ATP)}+[E]total/2; for all kinases, [ATP]=Km^ATP, [Btk]total=0.5 nM and [Lck]total=6 nM.
(In general: TR-FRET usually uses a lanthanide donor and a delayed reading to cut background.)
By Ki is commonly meant a measure of affinity in units of concentration, obtained from inhibition or displacement. `COc1ccccc1C(=O)NN=Cc1[nH]c(=O)c2c(ccc3nc(Nc4c(Cl)cccc4Cl)n(C)c32)c1C` [Compound 49, 2-methoxy-benzoic acid [2-(2,6-dichlorophenylamino)-1,6-dimethyl-9-oxo-8,9-dihydro-1H-imidazo[4,5-h]isoquinolin-7-ylmethylene]-hydrazide]: the Ki lay within 100 to 1000 nM.
As to `Cc1cc(F)ccc1Nc1nc2ccc3c(CC(=O)N4CCP(=O)(c5ccc(F)cc5)CC4)c(C)[nH]c(=O)c3c2n1C` [Compound 50, 2-(4-fluoro-2-methylphenylamino)-1,7-dimethyl-6-{2-[4-(4-fluorophenyl)-4-oxo-4λ^5[1,4]azaphosphinan-1-yl]-2-oxoethyl}-1,8-dihydro-imidazo[4,5-h]isoquinolin-9-one], the Ki was in the range of 100 to 1000 nM.
The result for `CCC[C@@H](C=CS(=O)(=O)c1ccccc1)NC(=O)Cc1c(C)[nH]c(=O)c2c1ccc1nc(Nc3ccc(F)cc3C)n(C)c12` [Compound 51, (S)-2-(4-fluoro-2-methylphenylamino)-1,7-dimethyl-6-{N-[1-(phenylsulfonyl)hex-1-en-3-yl]-amino-2-oxoethyl}-1,8-dihydro-imidazo[4,5-h]isoquinolin-9-one] reads 100 to 1000 nM.
